In the oligonucleotide strings, read from the 5' end, every base follows the letter of its sugar. An asterisk marks phosphorothioate; unmarked linkages are phosphodiester. Other units and linkages are bracketed, terminal groups are in braces. A string of capitals states the bases alone. e = 2'-O-(2-methoxyethyl) (MOE); [5mC] = 5-methylcytosine; d = 2'-deoxy (DNA)
Legend:
T47D cells = test: Caspase-3 activity assay (apoptosis) in T47D cells; settings: T47D cells, 48 hours; for Fold Increase over UTC (caspase-3 activity, apoptosis): 200 nM oligomeric compound
IGFBP-1 = IGFBP-1 mRNA expression in HepG2 cells; type: cell-based, human; settings: for IGFBP1 mRNA expression: Experiment 2, insulin treated: HepG2 cells transfected with oligomeric compound, 1 nM insulin for four hours, UTC + 1 nM insulin = 100
Experimental: (§1) Approximately 28 hours after transfection, the cells are subjected to serum starvation for a period of 12 to 16 hours, using serum-free growth medium. Following serum starvation, cells are treated with 1 nM insulin (insulin-treated) or are left untreated (basal conditions) for approximately four hours. At the same time, untreated control cells in both plates are treated with 100 nM insulin to determine the maximal insulin response. Following insulin treatment (forty-eight hours after transfection), total RNA is harvested from all samples, and the amount of total RNA from each sample is determined using a Ribogreen assay (Invitrogen Corporation, Carlsbad, Calif.). Real-time PCR is performed on the total RNA samples using primer/probe sets for three insulin responsive genes: insulin-like growth factor binding protein-1 (IGFBP-1), cytosolic PEPCK (PEPCK-C), and follistatin. Gene expression levels obtained by real-time PCR are normalized for total RNA content in the samples.
(§2) Oligomeric compounds of the present invention were tested for their effects on insulin signaling in HepG2 cells. HepG2 cells were plated at 7500 cells/well in collagen coated 96-well plates. The following day, cells were transfected with oligomeric compounds targeting miRNAs using 100 nM oligomeric compound in LIPOFECTIN™ (Invitrogen Corporation, Carlsbad, Calif.) in two 96-well plates. The oligomeric compounds were tested in triplicate on each 96-well plate, except for positive and negative controls, which were measured up to six times per plate. At the end of transfection, the transfection medium was replaced by regular growth medium. Twenty-eight hours post-transfection, the cells were subjected to overnight (sixteen to eighteen hours) serum starvation using serum free growth medium. Forty-four hours post-transfection, the cells in the transfected wells were treated with either no insulin (“basal” Experiment 1, for identification of insulin-mimetic compounds) or with 1 nM insulin (“insulin treated” Experiment 2, for identification of insulin sensitizers) for four hours. At the same time, in both plates, cells in some of the un-transfected control wells are treated with 100 nM insulin to determine maximal insulin response. At the end of the insulin or no-insulin treatment (forty-eight hours post-transfection), total RNA is isolated from both the basal and insulin treated (1 nM) 96-well plates, and the amount of total RNA from each sample is determined using a Ribogreen assay (Molecular Probes, Eugene, Oreg.). Real-time PCR is performed on all the total RNA samples using primer/probe sets for three insulin responsive genes: PEPCK-c, IGFBP-1 and follistatin. Expression levels for each gene are normalized to total RNA, and values+standard deviation are expressed relative to the transfectant only untreated control (UTC) and negative control compounds.
(§3) Protocols for treatment of HepG2 cells and transfection of oligomeric compounds are as described in Example 18. Also as described in Example 18, forty-four hours post-transfection, the cells in the transfected wells were treated with either no insulin (“basal” Experiment 3 (below), for identification of insulin-mimetic compounds) or with 1 nM insulin (“insulin treated” Experiment 4 (below), for identification of insulin sensitizers) for four hours. At the same time, in both plates, cells in some of the un-transfected control wells are treated with 100 nM insulin to determine maximal insulin response. At the end of the insulin or no-insulin treatment (forty-eight hours post-transfection), total RNA is isolated from both the basal and insulin treated (1 nM) 96-well plates, and the amount of total RNA from each sample is determined using a Ribogreen assay (Molecular Probes, Eugene, Oreg.).

follistatin = test: Follistatin mRNA expression in HepG2 cells; type: cell-based, human; settings: for Follistatin mRNA expression: Experiment 2, insulin treated: HepG2 cells transfected with oligomeric compound, 1 nM insulin for four hours, UTC + 1 nM insulin = 100
Experimental: as §1, §2, §3

PEPCK-c = PEPCK-c mRNA expression in HepG2 cells; type: cell-based, human; settings: for PEPCKc mRNA expression: Experiment 2, insulin treated: HepG2 cells transfected with oligomeric compound, 1 nM insulin for four hours, UTC + 1 nM insulin = 100
Experimental: as §1, §2, §3

adipocytes = test: Triglyceride accumulation assay in adipocytes; type: cell-based, human; settings: differentiating adipocytes transfected with oligomeric compound; Table 75
Glut4 = Glut4 mRNA expression in adipocytes (real-time PCR); type: cell-based, human; settings: differentiating adipocytes transfected with oligomeric compound; Table 75
aP2 = aP2 mRNA expression in adipocytes (real-time PCR); type: cell-based, human; settings: differentiating adipocytes transfected with oligomeric compound; Table 75
HSL = HSL mRNA expression in adipocytes (real-time PCR); type: cell-based, human; settings: differentiating adipocytes transfected with oligomeric compound; Table 75
PPARγ = PPARγ mRNA expression in adipocytes (real-time PCR); type: cell-based, human; settings: differentiating adipocytes transfected with oligomeric compound; Table 75
HeLa cells = test: Cell cycle assay in HeLa cells; type: cell-based, human; settings: HeLa cells; for % cells in cell cycle phase: G1 / % cells in cell cycle phase: G2/M / % cells in cell cycle phase: S / % cells in cell cycle phase: aneuploid / % cells in cell cycle phase: subG1: 48 hours after treatment, relative to untreated control (UTC=100)
[1] = system: BJ, B16-F10, T47D, T47Dp53 and HeLa cells; test: Cell cycle assay (propidium iodide flow cytometry), cell line panel; type: cell-based; settings: 150 nM oligomeric compound, 4.5 μg/ml LIPOFECTIN, after 72 hours, propidium iodide flow cytometry
[2] = HepG2 cells, Experiment 1, basal (no insulin), four hours, UTC = 100
[3] = 150 nM oligomeric compound, 24 hours, relative to untreated control (UTC = 100)
[4] = 150 nM, 48 hours, relative to untreated control
[5] = Experiment 3, basal (no insulin), HepG2 cells, 48 hours post-transfection
[6] = Experiment 4, insulin-sensitization: HepG2 cells treated with 1 nM insulin for four hours, 48 h post-transfection, mRNA by real-time PCR

Substance | IGFBP1 mRNA expression (IGFBP-1) | Follistatin mRNA expression (follistatin) | PEPCKc mRNA expression (PEPCK-c) | % cells aneuploid (HeLa cells; [3]) | % cells in cell cycle phase G1 (HeLa cells; [3]) | % cells in cell cycle phase G2/M (HeLa cells; [3]) | % cells in cell cycle phase S (HeLa cells; [3]) | % cells in cell cycle phase subG1 (HeLa cells; [3]) | % cells in cell cycle phase: G1 (HeLa cells; 150 nM oligomeric compound) | % cells in cell cycle phase: G2/M (HeLa cells; 150 nM oligomeric compound) | % cells in cell cycle phase: S (HeLa cells; 150 nM oligomeric compound) | % cells in cell cycle phase: aneuploid (HeLa cells; 150 nM oligomeric compound) | % cells in cell cycle phase: subG1 (HeLa cells; 150 nM oligomeric compound) | G1 (percentage of cells in phase of the cell cycle) [1] | G2/M (percentage of cells in phase of the cell cycle) [1] | S (percentage of cells in phase of the cell cycle) [1] | SubG1 (percentage of cells in phase of the cell cycle) [1] | aneuploid (percentage of cells) [1] | also measured
328377 (eT*e[5mC]*eA*e[5mC]*eT*d[5mC]*d[5mC]*dT*dA*dA*dA*dG*dG*dT*dT*e[5mC]*eA*eA*eG*eT; antisense) [compound 328377] | 247 | 159 | 182 | – | – | – | – | – | – | – | – | – | – | – | – | – | – | – | Fold Increase over UTC (caspase activity) (T47D cells; 200 nM, relative to untreated control): 0.7
341801 (antisense CCUAUCUCCCCUCUGGACC; all 2'-MOE, all phosphorothioate, methylation of C and T or U not given here) [compound 341801] | – | – | – | – | – | – | – | – | – | – | – | – | – | – | – | – | – | – | TG (triglyceride accumulation) (adipocytes): 65 percentage of untreated control (UTC); GLUT4 mRNA (Glut4): 77 percentage of untreated control (UTC); aP2 mRNA (aP2): 90 percentage of untreated control (UTC); HSL mRNA (HSL): 89 percentage of untreated control (UTC); IGFBP1 mRNA (IGFBP-1; [2]): 99; Follistatin mRNA (follistatin; [2]): 85; PPAR gamma mRNA (PPARγ): 82 percentage of untreated control (UTC); PEPCKc mRNA (PEPCK-c; [2]): 73
328342 (e[5mC]*eA*eA*eT*eT*dG*d[5mC]*dG*d[5mC]*dT*dA*d[5mC]*dA*dG*dA*eA*e[5mC]*eT*eG*eT) [compound 328342] | 98 | 88 | 39 | 67% | 33% | 238% | 95% | 192% | 55% | 225% | 115% | 107% | 189% | 62.3% | 12.8% | 24.9% | 4.8% | 15.2% | % cells in cell cycle phase G1 (HeLa cells; [4]): 96%; % cells in cell cycle phase G2/M (HeLa cells; [4]): 138%; % cells in cell cycle phase S (HeLa cells; [4]): 89%; % cells in cell cycle phase aneuploid (HeLa cells; [4]): 96%; % cells in cell cycle phase subG1 (HeLa cells; [4]): 103%
328423 (antisense e[5mC]*e[5mC]*eA*e[5mC]*eA*dT*dA*dT*dA*d[5mC]*dA*dT*dA*dT*dA*eT*eA*e[5mC]*eG*e[5mC]) [compound 328423] | 69 | 114 | 77 | – | – | – | – | – | – | – | – | – | – | 52.9% | 14.8% | 32.4% | 4.9% | 15.3% | Fold Increase over UTC (caspase-3 activity, apoptosis) (T47D cells; experiment of Table 10): 0.6 fold
328396 (antisense e[5mC]*eT*eG*eG*eT*dT*dG*dG*dG*dT*dA*dT*dG*dA*dG*eA*e[5mC]*eA*eG*eA) [compound 328396] | 128 | 135 | 65 | 88% | 94% | 139% | 87% | 97% | 89% | 119% | 114% | 129% | 88% | 56.8% | 15% | 28.2% | 4.6% | 19.8% | Fold Increase over UTC (caspase-3 activity, apoptosis) (T47D cells; experiment of Table 12): 0.8 fold
328773 (antisense eT*eA*e[5mC]*eT*eT*dT*dA*d[5mC]*dT*d[5mC]*d[5mC]*dA*dA*dG*dG*eT*eT*eT*eT*eA) [compound 328773] | – | – | – | – | – | – | – | – | – | – | – | – | – | 56.4% | 16.7% | 26.9% | 2.7% | 11.7% | IGFBP-1 (% UTC) (IGFBP-1; [5]): 148 % UTC; IGFBP-1 (% UTC) (IGFBP-1; [6]): 136 % UTC; Follistatin (% UTC) (follistatin; [5]): 131 % UTC; Follistatin (% UTC) (follistatin; [6]): 148 % UTC; PEPCK-c (% UTC) (PEPCK-c; [5]): 138 % UTC; PEPCK-c (% UTC) (PEPCK-c; [6]): 93 % UTC

From patent US8178506B2, “Oligomeric compounds and compositions for use in modulation of small non-coding RNAs” (Regulus Therapeutics Inc., priority 2003, dated 2012)
